Several values for one entry are separate records, joined by “and”; a condition that tells them apart may be missing. Equal values may be shown once.
Tests used:
nitrile hydratase [1] = target: T1, nitrile hydratase (Pseudonocardia thermophila, UniProt Q7SID2+Q7SID3); test: Nitrile hydrating activity (acrylamide formed) of wet microorganism contacted with an oxidizing agent in deoxidized water; type: cell-based, Escherichia coli HB101 (MT-10822 strain); design: expressed in transfected cells; host or cells: Escherichia coli HB101 (transformant MT-10822, FERM BP-5785), IPTG-induced
T1 sequence (Q7SID2 whole entry): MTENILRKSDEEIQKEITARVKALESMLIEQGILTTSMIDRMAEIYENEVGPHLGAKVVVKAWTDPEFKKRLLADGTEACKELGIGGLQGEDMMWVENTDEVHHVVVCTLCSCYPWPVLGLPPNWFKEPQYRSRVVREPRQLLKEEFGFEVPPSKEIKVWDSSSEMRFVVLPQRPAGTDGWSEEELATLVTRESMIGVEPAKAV
T1 sequence (Q7SID3 whole entry): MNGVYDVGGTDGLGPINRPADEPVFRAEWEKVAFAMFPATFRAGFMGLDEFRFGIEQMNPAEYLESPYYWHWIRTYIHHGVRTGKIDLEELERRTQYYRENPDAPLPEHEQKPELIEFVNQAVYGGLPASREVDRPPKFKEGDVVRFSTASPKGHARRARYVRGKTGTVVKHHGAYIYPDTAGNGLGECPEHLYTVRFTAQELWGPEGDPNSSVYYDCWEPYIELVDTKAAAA
Description: (§1) In HPLC analysis of a reaction solution in the Examples, ULTRON 80HG (50×8 φmm) was used as an HPLC column, and 10 mM aqueous phosphate solution was used as a developing solution. Acrylamide and acrylonitrile were detected by absorbance at 220 nm to determine their concentrations.
The resulting microorganism, 0.20 g, was suspended in previously deoxidized pure water in a 100 ml sealable glass container previously sufficiently purged with nitrogen, and potassium ferricyanide was added and suspended as an oxidizing agent at a final concentration shown in Table 1 to give 20.00 g suspension. Separately, an oxidizing agent-free microbial suspension was prepared in the same manner. The microbial suspension was kept at 20° C. for 15 minutes under stirring.
(§2) The reaction was terminated by adding 80 g of 10 mM aqueous phosphoric acid, and then the concentration of acrylamide in the reaction solution was determined by HPLC analysis. Subsequently, the concentration of the microbial suspension based on the dry weight of the microorganism was determined, and then the amount of formed acrylamide per unit dry weight of the microorganism was calculated.
The amount of acrylamide formed per unit dry weight of the microorganism was determined in the same manner as in Example 3 except that in place of potassium ferricyanide, ammonium persulfate was added and suspended as an oxidizing agent at a concentration shown in Table 1.
The microbial suspension was kept at 20° C. under stirring. 0 minute, 10 minutes, 2 hours and 24 hours after the stirring was initiated, a small amount of the microbial suspension was collected, and the amount of formed acrylamide per unit dry weight of the microorganism was determined in the same manner as in Example 3.
Separately, a microbial suspension wherein the oxidizing agent was not added and the pH value was not adjusted was also prepared in the same manner. The microbial suspension was kept at 20° C. for 15 minutes under stirring. The amount of formed acrylamide per unit dry weight of the microorganism was determined in the same manner as in Example 3.
Separately, a microbial suspension wherein the oxidizing agent was not added was also prepared in the same manner. The amount of formed acrylamide per unit dry weight of the microorganism was determined in the same manner as in Example 3.

nitrile hydratase [2] = target: T1, nitrile hydratase
Description: as §1, §2
A wet microorganism was obtained in the same manner as in Example 3. […] The suspension was kept at 10° C. under stirring, while the air (40 N-ml/min.) was passed through the gaseous phase in the flask. 0, 1, 2, 3, 7 and 19 days after storage, a part of the microbial suspension was removed. […] The amount of formed acrylamide in each of the collected microbial suspensions per unit dry weight of the microorganism was determined in the same manner as in Example 3.
A wet microorganism was obtained in the same manner as in Example 3. […] The amount of formed acrylamide in each of the collected microbial suspensions per unit dry weight of the microorganism was determined in the same manner as in Example 3.

nitrile hydratase [3] = target: T1, nitrile hydratase; remark: listed apart in the source
Description: as §1
MT-10822 strain (FERM BP-5785, see JP-A 11-253168) having a nitrile hydratase gene introduced into Escherichia coli HB101, deposited by Mitsui Chemicals, Inc., was used as the nitrile hydratase-containing cell in this example.
For culture of this microbial strain, 15.0 L medium having the following composition was prepared in a 30 L culture container and sterilized with high-pressure steam at 121° C. for 20 minutes. Ampicillin was added at a final concentration of 50 μg/ml to this medium, and the microbial strain was inoculated via a platinum loop thereto and cultured at 37° C. at 700 rpm for 20 hours. […]
The reaction was terminated by adding 80 g of 10 mM aqueous phosphoric acid, and then the concentration of acrylamide in the reaction solution was determined by HPLC analysis. Subsequently, the concentration of the microbial suspension was determined on the basis of the dry weight of the microorganism, and then the amount of formed acrylamide per unit dry weight of the microorganism was calculated. […]

SMILES | AMOUNT OF […] (RELATIVE VALUE) (nitrile hydratase [1]) [relative value] | nitrile hydrating activity of the nitrile hydratase on contact of the microorganism with the oxidizing agent (in words) (nitrile hydratase [1]) | nitrile hydrating activity of the nitrile hydratase on contact with oxygen, depending on the contact time (in words) (nitrile hydratase [2]) | amount of formed acrylamide per unit dry weight of the microorganism (0 hour of storage = 1) (nitrile hydratase [3])
N.N.O=S(=O)(O)OOS(=O)(=O)O [AMMONIUM PERSULFATE, ammonium persulfate] | 1.6 | improved | – | –
OO [HYDROGEN PEROXIDE, hydrogen peroxide] | 2.4 | improved | – | –
O=O [oxygen] | – | – | improved depending on the contact time | 1.1 and 1.0
